What is called pIC50 is the IC50 on a negative log10 scale, so that one unit is a factor of ten.

The text below walks through data of US9303016B2, “Derivatives of aza adamantane and uses thereof” (CONNEXIOS LIFE SCIENCES PVT. LTD., priority 2011, dated 2016).

pIC50: −log10 of the molar value. Bounds are passed on as bounds.

In this assay the target is T1, human full length HSD11β1 (Homo sapiens, UniProt P28845).
T1 construct: transient expression of human full length HSD11β1 expression vector; host or cells: CHO cells, transient transfection
T1 sequence (P28845 whole entry): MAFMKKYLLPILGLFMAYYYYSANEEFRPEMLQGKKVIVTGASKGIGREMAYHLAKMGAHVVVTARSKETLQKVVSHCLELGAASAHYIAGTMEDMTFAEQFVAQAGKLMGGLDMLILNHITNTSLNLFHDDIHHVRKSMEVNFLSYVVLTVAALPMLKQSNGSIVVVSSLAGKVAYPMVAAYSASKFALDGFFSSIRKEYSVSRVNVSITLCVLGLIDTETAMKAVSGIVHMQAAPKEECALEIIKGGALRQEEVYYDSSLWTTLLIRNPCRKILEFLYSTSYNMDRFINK
As to the kind of experiment: In Vitro HSD11β1 Inhibition Assay. It is filed as cell-based. The conditions noted are these: CHO cells transiently expressing human HSD11β1; 200 nM cortisone+500 uM NADPH overnight; cortisone to cortisol by LC/MS-MS; read-out: 11βHSD1 (IC50). The gist of the method:
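Whole-cell assay in CHO cells transiently transfected with full-length human HSD11β1, re-seeded 24 h after transfection. Cells incubated overnight with 200 nM cortisone plus 500 uM NADPH, with or without inhibitor. Cortisone-to-cortisol conversion measured by LC/MS-MS; IC50 (nM) from an 8-point log concentration-inhibition curve.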
Regarding `Cc1cccc2c1nnn2C(CC(=O)N1C2CC3CC1CC(O)(C3)C2)C(C)C` (stereo not shown) [Compound 131, 1-(5-hydroxy-2-azatricyclo[3.3.1.1^3,7]dec-2-yl)-4-methyl-3-(4-methyl-1H-benzotriazol-1-yl)pentan-1-one], the pIC50 was below 6.60.

Take `CC(CC(=O)N1C2CC3CC1CC(C(=O)O)(C3)C2)c1c[nH]c2cccc(Br)c12` (stereo not shown) [Example 55, 2-[3-(4-bromo-1H-indol-3-yl)butanoyl]-2-azatricyclo[3.3.1.1^3,7]decane-5-carboxylic acid]: the pIC50 was below 6.60.

As to `CC(C)C(CC(=O)N1C2CC3CC(C2)C(O)C1C3)c1c[nH]c2ccccc12` (stereo not shown) [Example 19, 1-(4-hydroxy-2-azatricyclo[3.3.1.1^3,7]dec-2-yl)-3-(1H-indol-3-yl)-4-methylpentan-1-one], the pIC50 was 6.60 to 6.70.

As to `O=C(CC(c1cccs1)c1c[nH]c2cccc(F)c12)N1C2CC3CC1CC(O)(C3)C2` (stereo not shown) [Compound 127, 3-(4-fluoro-1H-indol-3-yl)-1-(5-hydroxy-2-azatricyclo[3.3.1.1^3,7]dec-2-yl)-3-(thiophen-2-yl)propan-1-one], the negative logarithm of the IC50 (pIC50) was above 7.00.

As for `CC(CC(=O)N1C2CC3(O)CC1CC(F)(C2)C3)c1c[nH]c2cccc(C3CC3)c12` (stereo not shown) [Compound 213, 3-(4-cyclopropyl-1H-indol-3-yl)-1-(5-fluoro-7-hydroxy-2-azatricyclo[3.3.1.1^3,7]dec-2-yl)butan-1-one], the pIC50 is 6.82 to 7.00.

`CC(CC(=O)N1C2CC3CC1CC(O)(C3)C2)c1c[nH]c2ncc(Cl)c(Cl)c12` (stereo not shown) [Compound 197, 3-(4,5-dichloro-1H-pyrrolo[2,3-b]pyridin-3-yl)-1-(5-hydroxy-2-azatricyclo[3.3.1.1^3,7]dec-2-yl)butan-1-one]: the pIC50 is above 7.00.

In the case of `CC(CC(=O)N1C2CC3CC1CC(C(=O)O)(C3)C2)c1c[nH]c2ccccc12` (stereo not shown) [Example 61, 2-[3-(1H-indol-3-yl)butanoyl]-2-azatricyclo[3.3.1.1^3,7]decane-5-carboxylic acid], the pIC50 was below 6.60.

For the compound `CC(CC(=O)N1C2CC3CC(C2)CC1C3)c1c[nH]c2cccc(N3CCC(C(=O)O)CC3)c12` (stereo not shown) [Compound 183, 1-{3-[4-(2-azatricyclo[3.3.1.1^3,7]dec-2-yl)-4-oxobutan-2-yl]-1H-indol-4-yl}piperidine-4-carboxylic acid], the pIC50 was below 6.60.

Consider `O=C(CC(c1ccc(F)cc1)c1c[nH]c2ccccc12)N1C2CC3CC1CC(O)(C3)C2` (stereo not shown) [Compound 73, 3-(4-fluorophenyl)-1-(5-hydroxy-2-azatricyclo[3.3.1.1^3,7]dec-2-yl)-3-(1H-indol-3-yl)propan-1-one], for which the pIC50 was above 7.00.

With `CC(CC(=O)N1C2CC3CC1CC(C(C)C(=O)O)(C3)C2)c1c[nH]c2cccc(C3CC3)c12` (stereo not shown) [Compound 167, 2-{2-[3-(4-cyclopropyl-1H-indol-3-yl)butanoyl]-2-azatricyclo[3.3.1.1^3,7]dec-5-yl}propanoic acid], the pIC50 was 6.60 to 6.70.

In the case of `CC(CC(=O)N1C2CC3CC1CC(O)(C3)C2)c1c[nH]c2ccc(Cl)cc12` (stereo not shown) [Example 68, 3-(5-chloro-1H-indol-3-yl)-1-(5-hydroxy-2-azatricyclo[3.3.1.1^3,7]dec-2-yl)butan-1-one], the negative logarithm of the IC50 (pIC50) is below 6.60.

For the compound `CC(CC(=O)N1C2CC3CC1CC(O)(C3)C2)c1c[nH]c2cc(F)ccc12` (single isomer, unassigned) [Compound 98, 3-(6-fluoro-1H-indol-3-yl)-1-(5-hydroxy-2-azatricyclo[3.3.1.1^3,7]dec-2-yl)butan-1-one], the pIC50 is above 7.00.

On to `Cc1ccc2[nH]cc(C(C)CC(=O)N3C4CC5CC3CC(O)(C5)C4)c2c1C1CC1` (stereo not shown) [Compound 160, 3-(4-cyclopropyl-5-methyl-1H-indol-3-yl)-1-(5-hydroxy-2-azatricyclo[3.3.1.1^3,7]dec-2-yl)butan-1-one], for which the pIC50 was 6.82 to 7.00.

As to `O=C(CCc1c[nH]c2ncccc12)N1C2CC3CC1CC(O)(C3)C2` [Example 15, 1-(5-hydroxy-2-azatricyclo[3.3.1.1^3,7]dec-2-yl)-3-(1H-pyrrolo[2,3-b]pyridin-3-yl)propan-1-one], the pIC50 is below 6.60.

Turning to `O=C(CC(c1ccc(F)cc1F)c1c[nH]c2ccccc12)N1C2CC3CC1CC(O)(C3)C2` (stereo not shown) [Compound 96, 3-(2,4-difluorophenyl)-1-(5-hydroxy-2-azatricyclo[3.3.1.1^3,7]dec-2-yl)-3-(1H-indol-3-yl)propan-1-one], the pIC50 is 6.82 to 7.00.

For the compound `CC(CC(=O)N1C2CC3CC1CC(O)(C3)C2)c1c[nH]c2ncc(Cl)cc12` (stereo not shown) [Compound 135, 3-(5-chloro-1H-pyrrolo[2,3-b]pyridin-3-yl)-1-(5-hydroxy-2-azatricyclo[3.3.1.1^3,7]dec-2-yl)butan-1-one], the pIC50 is below 6.60.

As to `CC(CC(=O)N1C2CC3CC1CC(C#N)(C3)C2)c1c[nH]c2ccccc12` (stereo not shown) [Example 65], the pIC50 was 6.60 to 6.70.

For the compound `O=C(O)C1C2CC3CC(C2)N(C(=O)CC(c2cccs2)c2c[nH]c4cccc(F)c24)C1C3` (stereo not shown) [Compound 122, 2-[3-(4-fluoro-1H-indol-3-yl)-3-(thiophen-2-yl)propanoyl]-2-azatricyclo[3.3.1.1^3,7]decane-4-carboxylic acid], the pIC50 was below 6.60.

On to `CC(CC(=O)N1C2CC3CC1CC(C#N)(C3)C2)c1c[nH]c2cccc(Cl)c12` (stereo not shown) [Example 59, 2-[3-(4-chloro-1H-indol-3-yl)butanoyl]-2-azatricyclo[3.3.1.1^3,7]decane-5-carbonitrile], for which the pIC50 is 6.82 to 7.00.

On to `O=C(CC(c1ccc(F)cc1)c1c[nH]c2ccccc12)N1C2CC3CC1CC(O)(C3)C2` (single isomer, unassigned) [Compound 81, 3-(4-fluorophenyl)-1-(5-hydroxy-2-azatricyclo[3.3.1.1^3,7]dec-2-yl)-3-(1H-indol-3-yl)propan-1-one], for which the pIC50 was below 6.60.

In the case of `O=C(CC(c1ccc(F)cc1)c1c[nH]c2cccc(F)c12)N1C2CC3CC1CC(O)(C3)C2` (stereo not shown) [Compound 99, 3-(4-fluoro-1H-indol-3-yl)-3-(4-fluorophenyl)-1-(5-hydroxy-2-azatricyclo[3.3.1.1^3,7]dec-2-yl)propan-1-one], the pIC50 is above 7.00.

`CC(CC(=O)N1C2CC3CC1CC(O)(C3)C2)c1nc2ccccc2s1` (stereo not shown) [Compound 84, 3-(1,3-benzothiazol-2-yl)-1-(5-hydroxy-2-azatricyclo[3.3.1.1^3,7]dec-2-yl)butan-1-one]: the negative-log IC50 (pIC50) is 6.60 to 6.70.

For the compound `CC(CC(=O)N1C2CC3CC1CC(O)(C3)C2)c1c[nH]c2cccc(C3CC3)c12` (single isomer, unassigned) [Compound 103, 3-(4-cyclopropyl-1H-indol-3-yl)-1-(5-hydroxy-2-azatricyclo[3.3.1.1^3,7]dec-2-yl)butan-1-one], the pIC50 was below 6.60.

Regarding `CC(CC(=O)N1C2CC3CC1CC(CO)(C3)C2)c1c[nH]c2cccc(Cl)c12` (stereo not shown) [Example 58, 3-(4-chloro-1H-indol-3-yl)-1-[5-(hydroxymethyl)-2-azatricyclo[3.3.1.1^3,7]dec-2-yl]butan-1-one], the pIC50 was above 7.00.

As to `CC(C)Oc1cccc2[nH]cc(C(C)CC(=O)N3C4CC5CC3CC(O)(C5)C4)c12` (single isomer, unassigned) [Compound 179, 1-(5-hydroxy-2-azatricyclo[3.3.1.1^3,7]dec-2-yl)-3-[4-(propan-2-yloxy)-1H-indol-3-yl]butan-1-one], the pIC50 is below 6.60.

Regarding `CC(CC(=O)N1C2CC3CC1CC(CC(=O)O)(C3)C2)c1c[nH]c2ccc(Cl)c(Br)c12` (stereo not shown) [Compound 162, {2-[3-(4-bromo-5-chloro-1H-indol-3-yl)butanoyl]-2-azatricyclo[3.3.1.1^3,7]dec-5-yl}acetic acid], the pIC50 is 6.70 to 6.82.

Consider `Cc1cccc2c1c(CCC(=O)N1C3CC4CC(C3)CC1C4)cn2C` [Example 3, 1-(2-azatricyclo[3.3.1.1^3,7]dec-2-yl)-3-(1,4-dimethyl-1H-indol-3-yl)propan-1-one], for which the pIC50 is below 6.60.

In the case of `CC(CC(=O)N1C2CC3CC1CC(C#N)(C3)C2)c1nc2cc(Cl)ccc2s1` (stereo not shown) [Compound 191, 2-[3-(5-chloro-1,3-benzothiazol-2-yl)butanoyl]-2-azatricyclo[3.3.1.1^3,7]decane-5-carbonitrile], the pIC50 is below 6.60.

Turning to `O=C(CC(c1c[nH]c2cccc(F)c12)C1CC1)N1C2CC3CC1CC(O)(C3)C2` (stereo not shown) [Compound 95, 3-cyclopropyl-3-(4-fluoro-1H-indol-3-yl)-1-(5-hydroxy-2-azatricyclo[3.3.1.1^3,7]dec-2-yl)propan-1-one], the pIC50 was 6.82 to 7.00.

In the case of `CC(CC(=O)N1C2CC3CC1CC(CC(=O)O)(C3)C2)c1c[nH]c2cccc(C3CC3)c12` (single isomer, unassigned) [Compound 155, {2-[3-(4-cyclopropyl-1H-indol-3-yl)butanoyl]-2-azatricyclo[3.3.1.1^3,7]dec-5-yl}acetic acid], the pIC50 is 6.82 to 7.00.

In the case of `COC12CC3CC(C1)N(C(=O)CC(C)c1c[nH]c4cccc(F)c14)C(C3)C2` (single isomer, unassigned) [Example 30, 3-(4-fluoro-1H-indol-3-yl)-1-(5-methoxy-2-azatricyclo[3.3.1.1^3,7]dec-2-yl)butan-1-one], the pIC50 was 6.70 to 6.82.

With `CC(CC(=O)N1C2CC3CC1CC(O)(C3)C2)c1c[nH]c2ccc(F)cc12` (stereo not shown) [Compound 75, 3-(5-fluoro-1H-indol-3-yl)-1-(5-hydroxy-2-azatricyclo[3.3.1.1^3,7]dec-2-yl)butan-1-one], the pIC50 is 6.60 to 6.70.

As to `Cc1cccc2[nH]cc(CCC(=O)N3C4CC5CC3CC(O)(C5)C4)c12` [Compound 116, 1-(5-hydroxy-2-azatricyclo[3.3.1.1^3,7]dec-2-yl)-3-(4-methyl-1H-indol-3-yl)propan-1-one], the pIC50 was 6.60 to 6.70.

For `CC(CC(=O)N1C2CC3CC1CC(O)(C3)C2)c1nc2ccc(Cl)cc2[nH]1` (stereo not shown) [Compound 202, 3-(6-chloro-1H-benzimidazol-2-yl)-1-(5-hydroxy-2-azatricyclo[3.3.1.1^3,7]dec-2-yl)butan-1-one], the pIC50 was below 6.60.
